Laboratory results taken from PubChem BioAssay AID256 (DTP/NCI, 2004).
Toxic doses and inconclusive results are not listed. How the source made its calls: active means survival T/C of 150% or more; inactive means T/C below 125% in these data.

Test system: CD2F1 mice, L1210 leukemia ip, survival T/C
Assay: NCI In Vivo Anticancer Drug Screen. Data for tumor model L1210 Leukemia (intraperitoneal) in CD2F1 (CDF1) mice
Details: higher = longer survival
Outline: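 Mice carrying a transplanted tumor received test compound or vehicle alone. The value is the measurement in the treated group divided by that in the vehicle-treated control group.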

[1] = endpoint: mean survival time, dose: 100.0 mg/kg/injection, schedule: Q04DX003 (ip), vehicle: other

Measured: T/C

C=COCC(C)C (tested in a mixture with another compound)
inactive: endpoint: mean survival time, dose: 0.78 mg/kg/injection, schedule: Q01DX009 (ip), vehicle: Klucel (hydroxypropylcellulose) (HPC) 93 % of control | endpoint: mean survival time, dose: 1.56 mg/kg/injection, schedule: Q01DX009 (ip), vehicle: Klucel (hydroxypropylcellulose) (HPC) 90 % of control | endpoint: mean survival time, dose: 1.56 mg/kg/injection, schedule: Q01DX009 (ip), vehicle: saline with Tween-80 86 % of control | endpoint: mean survival time, dose: 1.56 mg/kg/injection, schedule: Q04DX003 (ip), vehicle: other 109 % of control | endpoint: mean survival time, dose: 3.12 mg/kg/injection, schedule: Q01DX009 (ip), vehicle: Klucel (hydroxypropylcellulose) (HPC) 88 % of control | endpoint: mean survival time, dose: 3.12 mg/kg/injection, schedule: Q04DX003 (ip), vehicle: other 91 % of control | endpoint: mean survival time, dose: 3.13 mg/kg/injection, schedule: Q01DX009 (ip), vehicle: saline with Tween-80 92 % of control | endpoint: mean survival time, dose: 4.67 mg/kg/injection, schedule: Q01DX009 (ip), vehicle: Klucel (hydroxypropylcellulose) (HPC) 98 % of control | endpoint: mean survival time, dose: 6.25 mg/kg/injection, schedule: Q01DX009 (ip), vehicle: saline with Tween-80 94 % of control | endpoint: mean survival time, dose: 7.09 mg/kg/injection, schedule: Q01DX009 (ip), vehicle: Klucel (hydroxypropylcellulose) (HPC) 98 % of control | endpoint: mean survival time, dose: 10.6 mg/kg/injection, schedule: Q01DX009 (ip), vehicle: Klucel (hydroxypropylcellulose) (HPC) 93 % of control | endpoint: mean survival time, dose: 12.5 mg/kg/injection, schedule: Q04DX003 (ip), vehicle: saline with Tween-80 87 % of control | endpoint: mean survival time, dose: 15.8 mg/kg/injection, schedule: Q01DX009 (ip), vehicle: alcohol 96 % of control | endpoint: mean survival time, dose: 18.8 mg/kg/injection, schedule: Q01DX009 (ip), vehicle: saline 111 % of control | endpoint: mean survival time, dose: 24.0 mg/kg/injection, schedule: Q01DX009 (ip), vehicle: alcohol 88 % of control | endpoint: mean survival time, dose: 35.0 mg/kg/injection, schedule: Q01DX009 (ip), vehicle: alcohol 97 % of control | endpoint: mean survival time, dose: 37.5 mg/kg/injection, schedule: Q01DX009 (ip), vehicle: saline 111 % of control | endpoint: mean survival time, dose: 100.0 mg/kg/injection, schedule: Q01DX001 (ip), vehicle: saline with Tween-80 113 % of control | endpoint: mean survival time, dose: 200.0 mg/kg/injection, schedule: Q01DX001 (ip), vehicle: saline with Tween-80 109 % of control | endpoint: mean survival time, dose: 400.0 mg/kg/injection, schedule: Q01DX001 (ip), vehicle: saline with Tween-80 95 % of control

c1ccc2cc(N=NNc3ccc4ccccc4c3)ccc2c1
inactive: endpoint: mean survival time, dose: 50.0 mg/kg/injection, schedule: Q01DX009 (ip), vehicle: saline with Tween-80 94 % of control | endpoint: mean survival time, dose: 100.0 mg/kg/injection, schedule: Q01DX009 (ip), vehicle: saline with Tween-80 98 % of control | endpoint: mean survival time, dose: 100.0 mg/kg/injection, schedule: Q04DX003 (ip), vehicle: saline with Tween-80 95 % of control | endpoint: mean survival time, dose: 200.0 mg/kg/injection, schedule: Q01DX009 (ip), vehicle: saline with Tween-80 100 % of control | endpoint: mean survival time, dose: 200.0 mg/kg/injection, schedule: Q04DX003 (ip), vehicle: saline with Tween-80 92 % of control

CC([NH-])C[NH-].O=C(O)C(O)C(O)C(O)C(O)CO.O=C(O)C(O)C(O)C(O)C(O)CO.[Pt+2] (stereo unspecified)
inactive: endpoint: mean survival time, dose: 25.0 mg/kg/injection, schedule: Q04DX003 (ip), vehicle: saline 113 % of control | endpoint: mean survival time, dose: 50.0 mg/kg/injection, schedule: Q04DX003 (ip), vehicle: saline 120 % of control | endpoint: mean survival time, dose: 100.0 mg/kg/injection, schedule: Q04DX003 (ip), vehicle: saline 123 % of control

O=S1(=O)CC23C=CC=CC2(CCCC3)C1Cl (stereo unspecified)
inactive: [1] 94 % of control

CCCCCCC[CH2][Sn]([CH2]CCCCCCC)([NH]S(=O)(=O)c1ccc(C)cc1)[NH]S(=O)(=O)c1ccc(C)cc1
inactive: endpoint: mean survival time, dose: 75.0 mg/kg/injection, schedule: Q01DX001 (ip), vehicle: other 113 % of control | endpoint: mean survival time, dose: 150.0 mg/kg/injection, schedule: Q01DX001 (ip), vehicle: other 107 % of control

CN(C)CCNc1ccc(NCCN(C)C)c2c1C(=O)c1ccccc1C2=O
active: endpoint: mean survival time, dose: 30.0 mg/kg/injection, schedule: Q01DX009 (ip), vehicle: saline with Tween-80 150 % of control
inactive: endpoint: mean survival time, dose: 3.75 mg/kg/injection, schedule: Q01DX009 (ip), vehicle: saline with Tween-80 104 % of control | endpoint: mean survival time, dose: 7.5 mg/kg/injection, schedule: Q01DX009 (ip), vehicle: saline with Tween-80 107 % of control | endpoint: mean survival time, dose: 15.0 mg/kg/injection, schedule: Q01DX009 (ip), vehicle: saline with Tween-80 117 % of control | endpoint: mean survival time, dose: 60.0 mg/kg/injection, schedule: Q01DX009 (ip), vehicle: saline with Tween-80 100 % of control

CC(=O)Nc1ccc(-c2c(N)ncc3ccccc23)cc1
inactive: endpoint: mean survival time, dose: 50.0 mg/kg/injection, schedule: Q04DX003 (ip), vehicle: other 94 % of control | [1] 94 % of control | endpoint: mean survival time, dose: 200.0 mg/kg/injection, schedule: Q04DX003 (ip), vehicle: other 96 % of control | endpoint: mean survival time, dose: 400.0 mg/kg/injection, schedule: Q04DX003 (ip), vehicle: other 100 % of control

CSc1nc(Cl)c2cc(C)[nH]c2n1
inactive: endpoint: median survival time, dose: 50.0 mg/kg/injection, schedule: Q01DX005 (ip), vehicle: saline 98 % of control | endpoint: median survival time, dose: 100.0 mg/kg/injection, schedule: Q01DX005 (ip), vehicle: saline 100 % of control | endpoint: median survival time, dose: 200.0 mg/kg/injection, schedule: Q01DX005 (ip), vehicle: saline 94 % of control

CN(C)C(=O)On1cccc1C#N
inactive: endpoint: mean survival time, dose: 0.78 mg/kg/injection, schedule: Q01DX001 (ip), vehicle: saline 95 % of control | endpoint: mean survival time, dose: 1.56 mg/kg/injection, schedule: Q01DX001 (ip), vehicle: saline 98 % of control | endpoint: mean survival time, dose: 3.13 mg/kg/injection, schedule: Q01DX001 (ip), vehicle: saline 98 % of control
